In PubChem BioAssay (NCI):
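In this assay, cells in 96-well plates receive the compound at five concentrations for 48 hours. Endpoints are linearly interpolated between the surrounding concentrations. Here, GI50 denotes the concentration required for 50% inhibition of growth. TGI: total growth inhibition.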

What was measured:
Test in all cases: NCI anticancer screen, dose series, 48 h
ACHN renal = test system: ACHN renal
EKVX NSCLC = test system: EKVX NSCLC
SN12C renal = test system: SN12C renal
K-562 leukemia = test system: K-562 leukemia
T-47D breast = test system: T-47D breast
SF-295 CNS = test system: SF-295 CNS
A498 renal = test system: A498 renal
MDA-MB-231 breast = test system: MDA-MB-231 breast
MDA-MB-435 = test system: MDA-MB-435
SR leukemia = test system: SR leukemia
HCT-116 colon = test system: HCT-116 colon
OVCAR-3 ovarian = test system: OVCAR-3 ovarian
CCRF-CEM leukemia = test system: CCRF-CEM leukemia
RPMI-8226 leukemia = test system: RPMI-8226 leukemia
OVCAR-4 ovarian = test system: OVCAR-4 ovarian
KM12 colon = test system: KM12 colon
DU-145 prostate = test system: DU-145 prostate
LOX IMVI melanoma = test system: LOX IMVI melanoma
HOP-62 NSCLC = test system: HOP-62 NSCLC
UACC-257 melanoma = test system: UACC-257 melanoma
HS 578T breast = test system: HS 578T breast
RXF 393 renal = test system: RXF 393 renal
SF-268 CNS = test system: SF-268 CNS
786-0 renal = test system: 786-0 renal
HOP-92 NSCLC = test system: HOP-92 NSCLC
COLO 205 colon = test system: COLO 205 colon
MCF7 breast = test system: MCF7 breast
HL-60(TB) leukemia = test system: HL-60(TB) leukemia
OVCAR-5 ovarian = test system: OVCAR-5 ovarian
OVCAR-8 ovarian = test system: OVCAR-8 ovarian
HT29 colon = test system: HT29 colon
PC-3 prostate = test system: PC-3 prostate
SNB-19 CNS = test system: SNB-19 CNS
M14 melanoma = test system: M14 melanoma
U251 CNS = test system: U251 CNS
NCI-H226 lung = test system: NCI-H226 lung
SK-OV-3 ovarian = test system: SK-OV-3 ovarian
HCT-15 colon = test system: HCT-15 colon
CAKI-1 renal = test system: CAKI-1 renal
TK-10 renal = test system: TK-10 renal
NCI-H460 lung = test system: NCI-H460 lung
SF-539 CNS = test system: SF-539 CNS
NCI/ADR-RES ovarian = test system: NCI/ADR-RES ovarian
MALME-3M melanoma = test system: MALME-3M melanoma
SK-MEL-5 melanoma = test system: SK-MEL-5 melanoma
NCI-H23 lung = test system: NCI-H23 lung
HCC-2998 colon = test system: HCC-2998 colon
MOLT-4 leukemia = test system: MOLT-4 leukemia
UACC-62 melanoma = test system: UACC-62 melanoma
SNB-75 CNS = test system: SNB-75 CNS
SK-MEL-28 melanoma = test system: SK-MEL-28 melanoma
BT-549 breast = test system: BT-549 breast
SK-MEL-2 melanoma = test system: SK-MEL-2 melanoma
IGROV1 ovarian = test system: IGROV1 ovarian
A549 NSCLC = test system: A549 NSCLC
UO-31 renal = test system: UO-31 renal
NCI-H522 lung = test system: NCI-H522 lung
SW-620 colon = test system: SW-620 colon

`COc1ccc(/C=N/NC(=O)c2[nH]c3ccc(Br)cc3c2-c2ccccc2)o1` showed a GI50 (ACHN renal) of 203 nM, a TGI (ACHN renal) of 20700 nM and a GI50 (EKVX NSCLC) of 968 nM. The TGI (EKVX NSCLC) was 29400 nM, the GI50 (SN12C renal) was 125 nM and the TGI (SN12C renal) was 8310 nM. It also gave a GI50 (K-562 leukemia) of 55 nM, a TGI (K-562 leukemia) greater than 72200 nM and a GI50 (T-47D breast) of 2950 nM. It also gave a TGI (T-47D breast) of 20600 nM, a GI50 (SF-295 CNS) of 165 nM and a TGI (SF-295 CNS) of 2880 nM. The GI50 (A498 renal) was 16700 nM, the TGI (A498 renal) was 37300 nM and the GI50 (MDA-MB-231 breast) was 148 nM. For the same compound, the TGI (MDA-MB-231 breast) was 2190 nM, the GI50 (MDA-MB-435) was 112 nM and the TGI (MDA-MB-435) was 303 nM. It also gave a GI50 (SR leukemia) of 114 nM, a TGI (SR leukemia) of 19100 nM and a GI50 (HCT-116 colon) of 108 nM. The TGI (HCT-116 colon) was 1100 nM, the GI50 (OVCAR-3 ovarian) was 284 nM and the TGI (OVCAR-3 ovarian) was 2840 nM. For the same compound, the GI50 (CCRF-CEM leukemia) was 136 nM, the TGI (CCRF-CEM leukemia) was greater than 55200 nM and the GI50 (RPMI-8226 leukemia) was 161 nM. For the same compound, the TGI (RPMI-8226 leukemia) was greater than 32500 nM, the GI50 (OVCAR-4 ovarian) was 265 nM and the TGI (OVCAR-4 ovarian) was 29300 nM. For the same compound, the GI50 (KM12 colon) was 311 nM, the TGI (KM12 colon) was 4840 nM and the GI50 (DU-145 prostate) was 307 nM. For the same compound, the TGI (DU-145 prostate) was 14300 nM, the GI50 (LOX IMVI melanoma) was 35.4 nM and the TGI (LOX IMVI melanoma) was 12300 nM. It also gave a GI50 (HOP-62 NSCLC) of 467 nM, a TGI (HOP-62 NSCLC) of 20800 nM and a GI50 (UACC-257 melanoma) of 258 nM. The TGI (UACC-257 melanoma) was 23200 nM, the GI50 (HS 578T breast) was 570 nM and the TGI (HS 578T breast) was 21000 nM. The GI50 (RXF 393 renal) was 1100 nM, the TGI (RXF 393 renal) was 17800 nM and the GI50 (SF-268 CNS) was 500 nM. It also gave a TGI (SF-268 CNS) of 27800 nM, a GI50 (786-0 renal) of 353 nM and a TGI (786-0 renal) of 13700 nM. It also gave a GI50 (HOP-92 NSCLC) of 953 nM, a TGI (HOP-92 NSCLC) of 10100 nM and a GI50 (COLO 205 colon) of 196 nM. The TGI (COLO 205 colon) was 377 nM, the GI50 (MCF7 breast) was 90.7 nM and the TGI (MCF7 breast) was 11100 nM. The GI50 (HL-60(TB) leukemia) was 74.8 nM, the TGI (HL-60(TB) leukemia) was 265 nM and the GI50 (OVCAR-5 ovarian) was 161 nM. The TGI (OVCAR-5 ovarian) was 17600 nM, the GI50 (OVCAR-8 ovarian) was 143 nM and the TGI (OVCAR-8 ovarian) was 1570 nM. The GI50 (HT29 colon) was 66.6 nM, the GI50 (PC-3 prostate) was 386 nM and the TGI (PC-3 prostate) was greater than 34400 nM. The GI50 (SNB-19 CNS) was 323 nM, the TGI (SNB-19 CNS) was 19700 nM and the GI50 (M14 melanoma) was 299 nM. It also gave a TGI (M14 melanoma) of 15300 nM, a GI50 (U251 CNS) of 309 nM and a TGI (U251 CNS) of 11000 nM. For the same compound, the GI50 (NCI-H226 lung) was 276 nM, the TGI (NCI-H226 lung) was 7950 nM and the GI50 (SK-OV-3 ovarian) was 455 nM. It also gave a TGI (SK-OV-3 ovarian) of 40200 nM, a GI50 (HCT-15 colon) of 219 nM and a TGI (HCT-15 colon) of 3040 nM. It also gave a GI50 (CAKI-1 renal) of 295 nM, a TGI (CAKI-1 renal) of 21000 nM and a GI50 (TK-10 renal) of 2260 nM. It also gave a TGI (TK-10 renal) of 37100 nM, a GI50 (NCI-H460 lung) of 248 nM and a TGI (NCI-H460 lung) of 1590 nM. For the same compound, the GI50 (SF-539 CNS) was 72 nM, the TGI (SF-539 CNS) was 237 nM and the GI50 (NCI/ADR-RES ovarian) was 53.3 nM. For the same compound, the TGI (NCI/ADR-RES ovarian) was 2590 nM, the GI50 (MALME-3M melanoma) was 202 nM and the TGI (MALME-3M melanoma) was 17700 nM. The GI50 (SK-MEL-5 melanoma) was 163 nM, the TGI (SK-MEL-5 melanoma) was 391 nM and the GI50 (NCI-H23 lung) was 300 nM. The TGI (NCI-H23 lung) was 9900 nM, the GI50 (HCC-2998 colon) was 382 nM and the TGI (HCC-2998 colon) was 14300 nM. It also gave a GI50 (MOLT-4 leukemia) of 59.9 nM, a TGI (MOLT-4 leukemia) of 21900 nM and a GI50 (UACC-62 melanoma) of 122 nM. For the same compound, the TGI (UACC-62 melanoma) was 13900 nM, the GI50 (SNB-75 CNS) was 165 nM and the TGI (SNB-75 CNS) was 3530 nM. The GI50 (SK-MEL-28 melanoma) was 418 nM, the TGI (SK-MEL-28 melanoma) was 15800 nM and the GI50 (BT-549 breast) was 177 nM. The TGI (BT-549 breast) was 667 nM, the GI50 (SK-MEL-2 melanoma) was 134 nM and the TGI (SK-MEL-2 melanoma) was 9220 nM. The GI50 (IGROV1 ovarian) was 314 nM, the TGI (IGROV1 ovarian) was 16700 nM and the GI50 (A549 NSCLC) was 251 nM. It also gave a TGI (A549 NSCLC) greater than 49900 nM, a GI50 (UO-31 renal) of 470 nM and a TGI (UO-31 renal) of 21500 nM. It also gave a GI50 (NCI-H522 lung) of 21.6 nM, a TGI (NCI-H522 lung) of 59.2 nM and a GI50 (SW-620 colon) of 196 nM. For the same compound, the TGI (SW-620 colon) was 28300 nM.
